Drawing on US11203591B2, “Substituted 6-azabenzimidazole compounds” (Gilead Sciences, Inc., priority 2018, dated 2021), this text covers IC50 for 23 molecules.

Broadly, the IC50 is the midpoint of a concentration-inhibition curve.

The target in one experiment is human HPK1 (MAP4K1) (Homo sapiens (Human), UniProt Q92918). Nature of the experiment: HPK1 IC50 Assay (TR-FRET peptide phosphorylation). It is filed as biochemical. The settings on record: 0.15 nM HPK1, 10 μM ATP, 1 μM STK S1 peptide substrate; geometric mean. In a few lines: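 Readout: TR-FRET (665 nm/620 nm) after EDTA stop, detecting STK S1 peptide (1 μM) phosphorylation by 0.15 nM HPK1 kinase domain, ATP-pre-activated, at 10 μM ATP over 3 h, 25° C, pH 7.0. IC50s from four-parameter variable-slope fits, normalized to staurosporine and DMSO, averaged geometrically.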
human HPK1 (MAP4K1), sequence (Q92918 17-274): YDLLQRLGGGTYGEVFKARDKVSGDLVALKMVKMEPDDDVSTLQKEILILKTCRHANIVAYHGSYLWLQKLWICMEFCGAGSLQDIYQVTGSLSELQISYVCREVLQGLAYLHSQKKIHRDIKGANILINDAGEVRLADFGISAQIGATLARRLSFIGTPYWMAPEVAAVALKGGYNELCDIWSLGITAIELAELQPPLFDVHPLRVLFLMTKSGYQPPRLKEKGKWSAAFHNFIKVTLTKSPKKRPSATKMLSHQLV
For `CCNC(=O)c1cc(Nc2nc(-c3ccc4c(c3)N([C@H]3C[C@@](C)(N5CCCCC5)C3)C(=O)C4(C)C)cc3ncn(C(C)C)c23)c(F)cc1C` [Example 276, 5-((6-(3,3-dimethyl-1-((1s,3s)-3-methyl-3-(piperidin-1-yl)cyclobutyl)-2-oxoindolin-6-yl)-3-isopropyl-3H-imidazo[4,5-c]pyridin-4-yl)amino)-N-ethyl-4-fluoro-2-methylbenzamide], the IC50 is 0.06 nM.

Staying with this experiment, now noted: recombinant HPK1 kinase domain 0.15 nM, 10 μM ATP, 1 μM STK S1 peptide; geometric mean of multiple experiments.
Regarding `Cc1cc(F)c(Nc2nc(-c3ccc4c(c3)N([C@H]3C[C@@H](N5CCCCC5)C3)C(=O)C43CCN(C4COC4)CC3)cc3ncn(C(C)C)c23)cc1C(=O)NC(C)C` [Example 99], the IC50 amounted to 0.2 nM.

As for `CNC(=O)c1cc(Nc2nc(-c3ccc4c(c3)N([C@H]3C[C@@H](N5CCCCC5)C3)C(=O)C43CCN(C(=O)C4COC4)CC3)cc3ncn(C4CC4)c23)ccc1C` [Example 153], the IC50 turned out to be 0.1 nM.

For `CNC(=O)c1cc(Nc2nc(-c3ccc4c(c3)N([C@H]3C[C@@H](N5CCC[C@@H](F)C5)C3)C(=O)C43CCN(C(C)=O)CC3)cc3ncn(C(C)C)c23)ccc1C` [Example 162], the IC50 came to 0.1 nM.

As to `CC(C)n1cnc2cc(-c3cnc4c(c3)N([C@H]3C[C@@](C)(N5CC6CCC6C5)C3)C(=O)C4(C)C)nc(Nc3cc(C(=O)NC4(C(F)F)CC4)c(Cl)c(F)c3F)c21` (some centres unmarked) [Example 205, 5-((6-(1-((1s,3s)-3-(3-Azabicyclo[3.2.0]heptan-3-yl)-3-methylcyclobutyl)-3,3-dimethyl-2-oxo-2,3-dihydro-1H-pyrrolo[3,2-b]pyridin-6-yl)-3-isopropyl-3H-imidazo[4,5-c]pyridin-4-yl)amino)-2-chloro-N-(1-(difluoromethyl)cyclopropyl)-3,4-difluorobenzamide], the IC50 turned out to be 0.1 nM.

In the case of `CC[C@]1(N2CCCCC2)C[C@@H](N2C(=O)C(C)(C)c3ncc(-c4cc5ncn(C(C)C)c5c(Nc5cc(C(=O)NC6(C(F)F)CC6)c(C)cc5F)n4)cc32)C1` [Example 213, N-(1-(Difluoromethyl)cyclopropyl)-5-((6-(1-((1r,3s)-3-ethyl-3-(piperidin-1-yl)cyclobutyl)-3,3-dimethyl-2-oxo-2,3-dihydro-1H-pyrrolo[3,2-b]pyridin-6-yl)-3-isopropyl-3H-imidazo[4,5-c]pyridin-4-yl)amino)-4-fluoro-2-methylbenzamide], the IC50 was found to be 0.3 nM.

With `CNC(=O)c1cc(Nc2nc(-c3ccc4c(c3)N(C3CC(N5CCC[C@H](C(F)F)C5)C3)C(=O)C4(C)C)cc3ncn(C(C)C)c23)ccc1C` (some centres unmarked) [Example 105B, 5-((6-(1-((1s,3s)-3-(3-(difluoromethyl)piperidin-1-yl)cyclobutyl)-3,3-dimethyl-2-oxoindolin-6-yl)-3-isopropyl-3H-imidazo[4,5-c]pyridin-4-yl)amino)-N,2-dimethylbenzamide], the half-maximal inhibitory concentration (IC50) stood at 0.09 nM.

Consider `CNC(=O)c1cc(Nc2nc(-c3ccc4c(c3)N([C@H]3C[C@@H](N5CCC(C)(C)C5)C3)C(=O)C4(C)C)cc3ncn(C(C)C)c23)ccc1C` [Example 3], for which the concentration for half-maximal inhibition (IC50) turned out to be 0.1 nM.

Consider `CNC(=O)c1cc(Nc2nc(-c3ccc4c(c3)N([C@H]3C[C@@H](N5CCC[C@@H](F)C5)C3)C(=O)C4(C)C)cc3ncn(C(C)C)c23)c(F)cc1C` [Example 107], for which the IC50 turned out to be 0.1 nM.

With `CNC(=O)c1cc(Nc2nc(-c3ccc4c(c3)N([C@H]3C[C@@H](N5CCCCC5)C3)C(=O)C4(C)C)cc3ncn(C(C)C)c23)c(F)cc1Cl` [Example 118], the IC50 amounted to 0.09 nM.

In the case of `CNC(=O)c1cc(Nc2nc(-c3cnc4c(c3)N([C@H]3C[C@@H](N5CCCCC5)C3)C(=O)C4(C)C)cc3ncn(C(C)C)c23)ccc1C` [Example 18], the IC50 stood at 0.4 nM.

Consider `CNC(=O)c1ccc(F)c(Nc2nc(-c3ccc4c(c3)N([C@H]3C[C@@H](N5CCCCC5)C3)C(=O)C43CCN(C(C)=O)CC3)cc3ncn(C4CC4)c23)c1` [Example 97], for which the IC50 came to 0.4 nM.

Regarding `CNC(=O)c1cc(Nc2nc(-c3ccc4c(c3)N([C@H]3C[C@@H](N[C@@H]5CCOC[C@H]5C)C3)C(=O)C4(C)C)cc3ncn(C(C)C)c23)ccc1C` [Example 13], the IC50 is 0.1 nM.

Turning to `Cc1c(C(=O)NC2(C(F)F)CC2)cc(Nc2nc(-c3cnc4c(c3)N([C@H]3C[C@@](C)(N5CCC6CC5CO6)C3)C(=O)C4(C)C)cc3ncn(C(C)C)c23)c(F)c1F` (mixture of isomers) [Example 190, 5-((6-(1-((1s,3s)-3-(6-Oxa-2-azabicyclo[3.2.1]octan-2-yl)-3-methylcyclobutyl)-3,3-dimethyl-2-oxo-2,3-dihydro-1H-pyrrolo[3,2-b]pyridin-6-yl)-3-isopropyl-3H-imidazo[4,5-c]pyridin-4-yl)amino)-N-(1-(difluoromethyl)cyclopropyl)-3,4-difluoro-2-methylbenzamide], the IC50 amounted to 0.07 nM.

Turning to `CCNC(=O)c1cc(Nc2nc(-c3ccc4c(c3)N([C@H]3C[C@@H](N5CCC[C@@H](F)C5)C3)C(=O)C43CCN(C4COC4)CC3)cc3ncn(C(C)C)c23)c(F)cc1C` [Example 171], the IC50 was found to be 0.2 nM.

Regarding `Cc1c(C(=O)NC2(C(F)F)CC2)cc(Nc2nc(-c3cnc4c(c3)N([C@H]3C[C@@](C)(N5CC6CCC5CO6)C3)C(=O)C4(C)C)cc3ncn(C(C)C)c23)c(F)c1F` (some centres unmarked) [Example 224, 5-((6-(1-((1s,3s)-3-(2-oxa-5-azabicyclo[2.2.2]octan-5-yl)-3-methylcyclobutyl)-3,3-dimethyl-2-oxo-2,3-dihydro-1H-pyrrolo[3,2-b]pyridin-6-yl)-3-isopropyl-3H-imidazo[4,5-c]pyridin-4-yl)amino)-N-(1-(difluoromethyl)cyclopropyl)-3,4-difluoro-2-methylbenzamide], the IC50 came out at 0.06 nM.

Turning to `Cc1ccc(Nc2nc(-c3ccc4c(c3)N([C@H]3C[C@@H](N5CCCCC5)C3)C(=O)C4(C)C)cc3ncn(C(C)C)c23)cc1C(=O)NCC(C)(F)F` [Example 28], the IC50 is 0.1 nM.

With `Cc1ccc(Nc2nc(-c3ccc4c(c3)N([C@H]3C[C@@H](N5CCCCC5)C3)C(=O)C4(C)C)cc3ncn(C(C)C)c23)cc1C(=O)NCCC(F)F` [Example 25], the IC50 amounted to 0.07 nM.

With `CNC(=O)c1cc(Nc2nc(-c3ccc4c(c3)N([C@H]3C[C@@H](NC5CC(F)(F)C5)C3)C(=O)C4(C)C)cc3ncn(C(C)C)c23)ccc1C` [Example 81], the IC50 is 0.3 nM.

With `CC[C@H](C)n1cnc2cc(-c3ccc4c(c3)N([C@H]3C[C@@H](N5CCCCC5)C3)C(=O)C43CCN(C(C)=O)CC3)nc(Nc3ccc(C)c(C(=O)NC)c3)c21` [Example 48], the IC50 stood at 0.1 nM.

For `CNC(=O)c1cc(Nc2nc(-c3ccc4c(c3)N([C@H]3C[C@@H](N5CC(C)(C)C5)C3)C(=O)C4(C)C)cc3ncn(C(C)C)c23)c(F)cc1C` [Example 120], the concentration for half-maximal inhibition (IC50) is 0.2 nM.

Turning to `CNC(=O)c1cc(Oc2nc(-c3ccc4c(c3)N([C@H]3C[C@@H](N5CCC(C)(C)C5)C3)C(=O)C43CCN(C(C)=O)CC3)cc3ncn(C(C)C)c23)ccc1C` [Example 181], the IC50 is 0.2 nM.

As to `CC(C)NC(=O)c1cc(Nc2nc(-c3cnc4c(c3)N([C@H]3C[C@@](C)(N5CCC6CC6C5)C3)C(=O)C4(C)C)cc3ncn(C(C)C)c23)c(F)c(F)c1Cl` (some centres unmarked) [Example 254, 5-((6-(1-((1s,3s)-3-(3-azabicyclo[4.1.0]heptan-3-yl)-3-methylcyclobutyl)-3,3-dimethyl-2-oxo-2,3-dihydro-1H-pyrrolo[3,2-b]pyridin-6-yl)-3-isopropyl-3H-imidazo[4,5-c]pyridin-4-yl)amino)-2-chloro-3,4-difluoro-N-isopropylbenzamide], the IC50 stood at 0.05 nM.
